Reference: paper PMC4824473, “Dose-Response Analysis of Chemotactic Signaling Response in Salmonella typhimurium LT2 upon Exposure to Cysteine / Cystine Redox Pair” (PLoS ONE, 2016)

Target: T1, Tar (Salmonella enterica, UniProt P02941)
T1 construct: native chromosomal full-length receptor, homodimer in mixed receptor arrays; strain TSS868 (LT2 delta-tsr delta-cheY delta-cheZ) with CheZ-CFP/CheY-YFP plasmid pVS88; other native receptors present
Test: in vivo CheZ-CFP/CheY-YFP FRET of receptor-kinase activity, Hill fit
Type: cell-based
Details: live delta-tsr cells, motility buffer pH 7.0, room temperature; attractant; Hill coefficient 1.5; other receptors present; about 1% of Cys possibly oxidized to cystine; read-out: half maximum

T1 sequence (P02941 whole entry): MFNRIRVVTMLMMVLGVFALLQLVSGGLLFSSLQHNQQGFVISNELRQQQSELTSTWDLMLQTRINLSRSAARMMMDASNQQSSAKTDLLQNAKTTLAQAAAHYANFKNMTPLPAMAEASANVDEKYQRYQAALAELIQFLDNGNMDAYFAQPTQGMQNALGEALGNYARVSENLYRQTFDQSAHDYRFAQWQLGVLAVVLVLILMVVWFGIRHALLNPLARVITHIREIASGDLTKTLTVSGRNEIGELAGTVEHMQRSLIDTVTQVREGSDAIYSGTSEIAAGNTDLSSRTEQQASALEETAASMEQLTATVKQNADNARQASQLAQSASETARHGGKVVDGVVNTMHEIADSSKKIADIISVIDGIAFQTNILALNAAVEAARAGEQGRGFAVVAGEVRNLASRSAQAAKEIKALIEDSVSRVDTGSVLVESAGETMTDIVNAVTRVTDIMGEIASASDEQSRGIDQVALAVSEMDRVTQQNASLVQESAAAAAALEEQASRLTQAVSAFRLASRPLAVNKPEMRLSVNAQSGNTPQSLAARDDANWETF

Compound `N[C@@H](CS)C(=O)O` [Cys] has an EC50 of 128 µM.
